In patent US20250170224A1, “METHODS AND COMPOSITIONS FOR TREATING MICROGLIAL DYSFUNCTION AND IMPROVING METABOLIC DYSFUNCTION” (Ultimate Medicine AG, priority 2021, published 2025):

Assay: In vivo intestinal permeability to CML (CML translocated into the circulation after oral gavage, LC-MS)
Design: species or system mouse
Conditions: young-adult and aged mice, SPF or GF, 4 hours post gavage
Protocol: Specific pathogen-free (SPF) and germ-free (GF) housed C57BL/6 mice were analyzed at 6-10 weeks of age (young-adult) and 96-104 weeks of age (aged). Mice of the aged group in the nontargeted metabolomics analysis were 17-18 months old. Except for nontargeted metabolomics and microbiota profiling, where only male mice were used, all groups included mice from both sexes. Mice were housed under a 12-hour light/12-hour dark cycle and temperatures of 18-23° C. with 40-60% humidity, with food and water given ad libitum. To avoid cage effects, mice from at least three different cages per experimental group were analyzed. […] Blood was collected retro-orbitally after 4 hours and fluorescence intensity was measured on fluorescence plates using an excitation wavelength of 493 nm and an emission wavelength of 518 nm. […] CML translocated into the circulation was measured by liquid chromatography-mass spectrometry (LC-MS). […]
Samples were extracted with precooled (−80° C.) extraction solution (80:20 methanol LC-MS grade: Milli-Q H2O). Targeted metabolite quantification by LC-MS was carried out using an Agilent 1290 Infinity II UHPLC system in line with an Agilent 6495 QQQ-MS operating in multiple reaction monitoring (MRM) mode. […] Peak areas were identified based on standards for each metabolite and calculated using MassHunter v.B.08.02 (Agilent). […]

N[C@@H](CCCCNCC(=O)O)C(=O)O [CML, N^6-carboxymethyllysine]
translocation of CML into the circulation after oral gavage: highest in aged SPF mice
